According to EP0520554A2, “C-21 hydroxylated FK-506 antagonist” (MERCK & CO. INC., priority 1991, dated 1992):

System: mouse T-cells activated with ionomycin + PMA
Assay: T-cell proliferation assay (ionomycin plus PMA induced T-cell stimulation, tritiated thymidine uptake)
Assay type: cell-based, C57B1/6 mice
Procedure: The principle of this assay is to measure the proliferation of mouse T lymphocytes stimulated with the combination of ionomycin plus PMA. […] Cells were pelleted by centrifugation at 1500 rpm for 8 minutes. Contaminating red cells were removed by treating the pellet with ammonium chloride lysing buffer (GIBCO) for 2 minutes at 4°C. Cold medium was added and cells were again centrifuged at 1500 rpm for 8 minutes. T lymphocytes were then isolated by separation of the cell suspension on nylon wool columns as follows: Nylon wool columns were prepared by packing approximately 4 grams of washed and dried nylon wool into 20 ml plastic syringes. The columns were sterilized by autoclaving at 250°F for 30 minutes. Nylon wool columns were wetted with warm (37°C) culture medium and rinsed with the same medium. Washed spleen cells resuspended in warm medium were slowly applied to the nylon wool. The columns were then incubated in an upright position at 37°C for 1 hour. Non-adherent T lymphocytes were eluted from the columns with warm culture medium and the cell suspensions were spun as above. […] Ionomycin was added at 250 ng/ml and PMA at 10 ng/ml. The cell suspension was immediately distributed into 96 well flat-bottom microculture plates (Costar) at 200 µl/well. […] The proliferation of T lymphocytes was assessed by measurement of tritiated thymidine incorporation. After 44 hours of culturing, the cells were pulse-labelled with 2 µCi/well of tritiated thymidine (NEN, Cambridge, MA). After another 4 hours of incubation, cultures were harvested on glass fiber filters using a multiple sample harvester. Radioactivity of filter discs corresponding to individual wells was measured by standard liquid scintillation counting methods (Betacounter).

SMILES | inhibition at 0.125 µg/mL (Mus musculus, T-cell, sample 125 ng/ml, no FK-506, tritiated thymidine uptake, harvest at 48 hours) [%] | inhibition at 0.25 µg/mL (Mus musculus, T-cell, sample 250 ng/ml, no FK-506, tritiated thymidine uptake, harvest at 48 hours) [%] | inhibition at 0.5 µg/mL (Mus musculus, T-cell, sample 500 ng/ml, no FK-506, tritiated thymidine uptake, harvest at 48 hours) [%] | inhibition at 1 µg/mL (Mus musculus, T-cell, sample 1000 ng/ml, no FK-506, tritiated thymidine uptake, harvest at 48 hours) [%] | % Inhibition + FK-506 (1.2 nM) (sample 125 ng/ml in presence of FK-506 1.2 nM, harvest at 48 hours) [%] | % Inhibition + FK-506 (1.2 nM) (sample 250 ng/ml in presence of FK-506 1.2 nM, harvest at 48 hours) [%] | inhibition at 0.01 µg/mL (Mus musculus, T-cell) [%] | inhibition at 0.0012 µM (Mus musculus, T-cell, read-out: % Inhibition + FK-506 (1.2 nM)) [%]
CCC1(O)C=C(C)CC(C)CC(OC)C2OC(O)(C(=O)C(=O)N3CCCCC3C(=O)OC(C(C)=CC3CCC(O)C(OC)C3)C(C)C(O)CC1=O)C(C)CC2OC (centres unmarked) [21-OH-590, C-21 hydroxylated FR-900520] | 0 | 0 | 0 | 0 | 94 | 63 |  | 
C=CC[C@@H]1/C=C(\C)C[C@H](C)C[C@H](OC)[C@H]2O[C@@](O)(C(=O)C(=O)N3CCCC[C@H]3C(=O)O[C@H](/C(C)=C/[C@@H]3CC[C@@H](O)[C@H](OC)C3)[C@H](C)[C@@H](O)CC1=O)[C@H](C)C[C@@H]2OC [FK-506] |  |  |  |  |  |  | 99 | 97
